Test system: MV-4-11 cells
Test: Gene expression microarray analysis (Affymetrix PrimeView) and GSEA
Assay type: cell-based, human
Design: RFU PODN (11730768_x_at) / Fold change /veh PODN (11730768_x_at) / RFU LINC00158 (11744669_a_at) / Fold change /veh LINC00158 (11744669_a_at) / RFU DUSP10 (11751237_a_at) / Fold change /veh DUSP10 (11751237_a_at) / RFU ID3 (11757404_x_at) / Fold change /veh ID3 (11757404_x_at) / RFU PLEKHG5 (11737974_s_at) / Fold change /veh PLEKHG5 (11737974_s_at) / RFU LRRC4B (11730491_at) / Fold change /veh LRRC4B (11730491_at) / RFU GIMAP4 (11747438_a_at) / Fold change /veh GIMAP4 (11747438_a_at) / RFU KRT8 (11758183_x_at) / Fold change /veh KRT8 (11758183_x_at) / RFU CNN1 (11734310_a_at) / Fold change /veh CNN1 (11734310_a_at) / RFU VPS37D (11726825_at) / Fold change /veh VPS37D (11726825_at) / RFU C10orf10 (11716522_x_at) / Fold change /veh C10orf10 (11716522_x_at) / RFU KIR2DL2 /// KIR2DL4 /// KIR2DL5A /// KIR2DL5B /// KIR2DS1 /// KIR2DS2 /// KIR2DS3 /// KIR2DS4 /// KIR3DL3 /// KIR3DL3 /// KIR3DS1 (11738374_at) / Fold change /veh KIR2DL2 /// KIR2DL4 /// KIR2DL5A /// KIR2DL5B /// KIR2DS1 /// KIR2DS2 /// KIR2DS3 /// KIR2DS4 /// KIR3DL3 /// KIR3DL3 /// KIR3DS1 (11738374_at) / RFU C1QL1 (11718748_at) / Fold change /veh C1QL1 (11718748_at) / RFU TMPRSS4 (11747572_a_at) / Fold change /veh TMPRSS4 (11747572_a_at) / RFU HAMP (11756126_x_at) / Fold change /veh HAMP (11756126_x_at) / RFU RNFT2 (11725882_a_at) / Fold change /veh RNFT2 (11725882_a_at) / RFU NR4A2 (11747474_a_at) / Fold change /veh NR4A2 (11747474_a_at) / RFU ABCC12 (11746883_a_at) / Fold change /veh ABCC12 (11746883_a_at) / RFU TMEM136 (11760407_x_at) / Fold change /veh TMEM136 (11760407_x_at) / RFU CLDN22 /// WWC2 (11732394_at) / Fold change /veh CLDN22 /// WWC2 (11732394_at) / RFU HLA-DPB1 (11760878_x_at) / Fold change /veh HLA-DPB1 (11760878_x_at) / RFU SPINT1 (11716480_a_at) / Fold change /veh SPINT1 (11716480_a_at) / RFU GAP43 (11754022_s_at) / Fold change /veh GAP43 (11754022_s_at) / RFU A4GNT (11735810_at) / Fold change /veh A4GNT (11735810_at) / RFU PRB3 (11715151_x_at) / Fold change /veh PRB3 (11715151_x_at) / RFU TUBB4B (11761932_at) / Fold change /veh TUBB4B (11761932_at) / RFU CAPN14 (11732068_a_at) / Fold change /veh CAPN14 (11732068_a_at) / RFU TMCC2 (11721928_a_at) / Fold change /veh TMCC2 (11721928_a_at) / RFU IRGQ (11745062_a_at) / Fold change /veh IRGQ (11745062_a_at) / RFU FAM174B (11720279_a_at) / Fold change /veh FAM174B (11720279_a_at) / RFU TMPRSS4 (11748680_a_at) / Fold change /veh TMPRSS4 (11748680_a_at) / RFU FAM212B (11763350_a_at) / Fold change /veh FAM212B (11763350_a_at) / RFU PLEKHG5 (11743358_a_at) / Fold change /veh PLEKHG5 (11743358_a_at) / RFU ZSCAN30 (11745921_a_at) / Fold change /veh ZSCAN30 (11745921_a_at) / RFU CMKLR1 (11741424_a_at) / Fold change /veh CMKLR1 (11741424_a_at) / RFU LOC101060620 /// MAPK8IP1 (11723275_at) / Fold change /veh LOC101060620 /// MAPK8IP1 (11723275_at) / RFU SPTSSB (11747773_x_at) / Fold change /veh SPTSSB (11747773_x_at) / RFU PRSS12 (11739890_at) / Fold change /veh PRSS12 (11739890_at) / RFU BIN1 (11741810_x_at) / Fold change /veh BIN1 (11741810_x_at) / RFU WNT11 (11732464_a_at) / Fold change /veh WNT11 (11732464_a_at) / RFU C10orf10 (11716521_a_at) / Fold change /veh C10orf10 (11716521_a_at) / RFU C5orf56 (11738089_at) / Fold change /veh C5orf56 (11738089_at) / RFU CYB561 (11721691_x_at) / Fold change /veh CYB561 (11721691_x_at) / RFU ANKRD19P (11752326_a_at) / Fold change /veh ANKRD19P (11752326_a_at) / RFU OR2T12 /// OR2T33 /// OR2T8 (11738714_s_at) / Fold change /veh OR2T12 /// OR2T33 /// OR2T8 (11738714_s_at) / RFU VCAN (11748164_a_at) / Fold change /veh VCAN (11748164_a_at) / RFU JSRP1 (11732532_at) / Fold change /veh JSRP1 (11732532_at) / RFU KRTAP10-11 (11738290_x_at) / Fold change /veh KRTAP10-11 (11738290_x_at) / RFU MYO3A (11730013_a_at) / Fold change /veh MYO3A (11730013_a_at) / RFU EBF3 (11725865_a_at) / Fold change /veh EBF3 (11725865_a_at) / RFU CAMK2N1 (11719241_x_at) / Fold change /veh CAMK2N1 (11719241_x_at) / RFU C5orf56 (11738088_a_at) / Fold change /veh C5orf56 (11738088_a_at) / RFU OLFML3 (11715873_a_at) / Fold change /veh OLFML3 (11715873_a_at) / RFU LOC100653217 /// NTM (11731650_a_at) / Fold change /veh LOC100653217 /// NTM (11731650_a_at) / RFU MAPK11 (11762145_a_at) / Fold change /veh MAPK11 (11762145_a_at) / RFU FIZ1 (11724087_x_at) / Fold change /veh FIZ1 (11724087_x_at) / RFU OASL (11726364_x_at) / Fold change /veh OASL (11726364_x_at) / RFU SOX15 (11748057_x_at) / Fold change /veh SOX15 (11748057_x_at) / RFU CD79A (11719716_a_at) / Fold change /veh CD79A (11719716_a_at) / RFU HIST1H1D (11736915_at) / Fold change /veh HIST1H1D (11736915_at) / RFU CASKIN2 (11723855_a_at) / Fold change /veh CASKIN2 (11723855_a_at) / RFU LOC730098 (11760151_x_at) / Fold change /veh LOC730098 (11760151_x_at) / RFU OR4N2 (11742367_at) / Fold change /veh OR4N2 (11742367_at) / RFU PRRT2 (11749266_a_at) / Fold change /veh PRRT2 (11749266_a_at) / RFU SNX32 (11753110_a_at) / Fold change /veh SNX32 (11753110_a_at) / RFU CDHR5 (11726645_a_at) / Fold change /veh CDHR5 (11726645_a_at) / RFU RCAN1 (11760418_a_at) / Fold change /veh RCAN1 (11760418_a_at) / RFU FAM167A (11723789_a_at) / Fold change /veh FAM167A (11723789_a_at) / RFU FAM26E (11764081_at) / Fold change /veh FAM26E (11764081_at) / RFU ISYNA1 (11749810_s_at) / Fold change /veh ISYNA1 (11749810_s_at) / RFU ACY1 (11761880_at) / Fold change /veh ACY1 (11761880_at) / RFU 11764098_at / Fold change /veh 11764098_at / RFU SAMD14 (11745864_x_at) / Fold change /veh SAMD14 (11745864_x_at) / RFU NPB (11741838_a_at) / Fold change /veh NPB (11741838_a_at) / RFU TMPRSS6 (11731388_a_at) / Fold change /veh TMPRSS6 (11731388_a_at) / RFU KRTAP10-2 (11738614_at) / Fold change /veh KRTAP10-2 (11738614_at) / RFU ARHGAP8 /// PRR5-ARHGAP8 (11727945_x_at) / Fold change /veh ARHGAP8 /// PRR5-ARHGAP8 (11727945_x_at) / RFU KRTAP5-7 /// NADSYN1 (11734609_at) / Fold change /veh KRTAP5-7 /// NADSYN1 (11734609_at) / RFU RASL12 (11751679_a_at) / Fold change /veh RASL12 (11751679_a_at) / RFU CDKN2B (11736163_a_at) / Fold change /veh CDKN2B (11736163_a_at) / RFU PRF1 (11729649_at) / Fold change /veh PRF1 (11729649_at) / RFU, ZNF638 /// ZNF638-IT1 / Fold change vs veh, ZNF638 /// ZNF638-IT1 / RFU, PANK3 / Fold change vs veh, PANK3 / RFU, SH3YL1 / Fold change vs veh, SH3YL1 / RFU, ZEB2 / Fold change vs veh, ZEB2 / RFU, NRIP1 / Fold change vs veh, NRIP1 / RFU, PTTG1IP / Fold change vs veh, PTTG1IP / RFU, CAPN2 / Fold change vs veh, CAPN2 / RFU, MED14 / Fold change vs veh, MED14 / RFU, SNORA58 / Fold change vs veh, SNORA58 / RFU, C1orf63 / Fold change vs veh, C1orf63 / RFU, LRRFIP1 / Fold change vs veh, LRRFIP1 / RFU, NDUFAF7 / Fold change vs veh, NDUFAF7 / RFU, SLC12A2 / Fold change vs veh, SLC12A2 / RFU, IBTK / Fold change vs veh, IBTK / RFU, ESF1 / Fold change vs veh, ESF1 / Fold change vs veh, TMEM50B / RFU, TAOK1 / Fold change vs veh, TAOK1 / RFU, ACBD3 / Fold change vs veh, ACBD3 / RFU, TMA16 / Fold change vs veh, TMA16 / RFU, RWDD3 / Fold change vs veh, RWDD3 / RFU, BCAT1 / Fold change vs veh, BCAT1 / RFU, EDEM3 / Fold change vs veh, EDEM3 / RFU, TMEM33 / Fold change vs veh, TMEM33 / RFU, WDR75 / Fold change vs veh, WDR75 / RFU, AHCTF1 / Fold change vs veh, AHCTF1 / RFU, TFRC / Fold change vs veh, TFRC / RFU, ZDHHC17 / Fold change vs veh, ZDHHC17 / RFU, NOM1 / Fold change vs veh, NOM1 / RFU, ARL8B / Fold change vs veh, ARL8B / RFU, ZBTB11 / Fold change vs veh, ZBTB11 / RFU, TAMM41 / Fold change vs veh, TAMM41 / RFU, KIAA1704 /// LOC100996395 / Fold change vs veh, KIAA1704 /// LOC100996395 / RFU, ING1 / Fold change vs veh, ING1 / RFU, TRMT61B / Fold change vs veh, TRMT61B / RFU, FUBP3 / Fold change vs veh, FUBP3 / RFU, TP53 / Fold change vs veh, TP53 / RFU, TNKS2 / Fold change vs veh, TNKS2 / RFU, ZFP14 / Fold change vs veh, ZFP14 / RFU, ACTR2 / Fold change vs veh, ACTR2 / RFU, PPP3R1 / Fold change vs veh, PPP3R1 / RFU, PIK3R1 / Fold change vs veh, PIK3R1 / RFU, HNRNPA1 / Fold change vs veh, HNRNPA1 / RFU, RNF170 / Fold change vs veh, RNF170 / RFU, ZNF28 / Fold change vs veh, ZNF28 / RFU, RNGTT / Fold change vs veh, RNGTT / RFU, OGT / Fold change vs veh, OGT / RFU, BRD1 / Fold change vs veh, BRD1 / RFU, MARS / Fold change vs veh, MARS / RFU, ZNF655 / Fold change vs veh, ZNF655 / RFU, FAHD1 / Fold change vs veh, FAHD1 / RFU, BDP1 / Fold change vs veh, BDP1 / RFU, LRRCC1 / Fold change vs veh, LRRCC1 / RFU, ARID1A / Fold change vs veh, ARID1A / RFU, ZNF146 / Fold change vs veh, ZNF146 / RFU, ZNF330 / Fold change vs veh, ZNF330 / RFU, GPN3 / Fold change vs veh, GPN3 / RFU, C9orf123 / Fold change vs veh, C9orf123 / RFU, N4BP2L2 / Fold change vs veh, N4BP2L2 / RFU, ARFIP1 / Fold change vs veh, ARFIP1 / RFU, FAM179B / Fold change vs veh, FAM179B / RFU, BCL10 / Fold change vs veh, BCL10 / RFU, UHRF1BP1L / Fold change vs veh, UHRF1BP1L / RFU, BET1 / Fold change vs veh, BET1 / RFU, CNOT2 / Fold change vs veh, CNOT2 / RFU, ZNF268 / Fold change vs veh, ZNF268 / Fold change vs veh, ZNF507 / RFU, DGCR2 / Fold change vs veh, DGCR2 / RFU, WDSUB1 / Fold change vs veh, WDSUB1 / Fold change vs veh, HSP90B1 /// MIR3652 / RFU, ADSS / Fold change vs veh, ADSS / RFU, GK / Fold change vs veh, GK / RFU, ZNF148 / Fold change vs veh, ZNF148 / RFU, TAF9 / Fold change vs veh, TAF9 / RFU, SLC1A5 / Fold change vs veh, SLC1A5 / RFU, SLMO2 / Fold change vs veh, SLMO2 / RFU, ABCC4 / Fold change vs veh, ABCC4 / RFU, LOC101060439 /// RAP1B / Fold change vs veh, LOC101060439 /// RAP1B / RFU, RFX7 / Fold change vs veh, RFX7 / RFU, GTPBP10 / Fold change vs veh, GTPBP10 / RFU, CNEP1R1 / Fold change vs veh, CNEP1R1 / RFU, BIVM-ERCC5 /// ERCC5 / Fold change vs veh, BIVM-ERCC5 /// ERCC5 / RFU, ILF3 / Fold change vs veh, ILF3 / RFU 11762660_at / Fold change /veh 11762660_at / RFU VCAN (11757783_s_at) / Fold change /veh VCAN (11757783_s_at) / RFU DDX43 (11728927_at) / Fold change /veh DDX43 (11728927_at) / RFU KRT8 (11758188_x_at) / Fold change /veh KRT8 (11758188_x_at) / RFU NKD1 (11759106_at) / Fold change /veh NKD1 (11759106_at) / RFU SRD5A1 (11742802_a_at) / Fold change /veh SRD5A1 (11742802_a_at) / RFU TPSAB1 /// TPSB2 (11721975_s_at) / Fold change /veh TPSAB1 /// TPSB2 (11721975_s_at) / RFU GSTM3 (11746129_a_at) / Fold change /veh GSTM3 (11746129_a_at) / RFU IL23R (11737362_x_at) / Fold change /veh IL23R (11737362_x_at) / RFU TMEM51 (11727254_a_at) / Fold change /veh TMEM51 (11727254_a_at) / RFU PIWIL2 (11732686_x_at) / Fold change /veh PIWIL2 (11732686_x_at) / RFU ORM1 (11744905_x_at) / Fold change /veh ORM1 (11744905_x_at) / RFU CCDC152 (11743942_at) / Fold change /veh CCDC152 (11743942_at) / RFU ECM1 (11717891_a_at) / Fold change /veh ECM1 (11717891_a_at) / RFU IL23R (11748794_a_at) / Fold change /veh IL23R (11748794_a_at) / RFU TNFAIP8L3 (11732012_x_at) / Fold change /veh TNFAIP8L3 (11732012_x_at) / RFU MBOAT4 (11741988_at) / Fold change /veh MBOAT4 (11741988_at) / RFU 11764193_at / Fold change /veh 11764193_at / RFU TMEM53 (11763286_at) / Fold change /veh TMEM53 (11763286_at) / RFU MAGEB2 (11727129_at) / Fold change /veh MAGEB2 (11727129_at) / RFU TMEM200A (11744735_a_at) / Fold change /veh TMEM200A (11744735_a_at) / RFU CCDC152 (11751479_a_at) / Fold change /veh CCDC152 (11751479_a_at) / RFU FAM211A (11726209_a_at) / Fold change /veh FAM211A (11726209_a_at) / RFU RGS16 (11746705_a_at) / Fold change /veh RGS16 (11746705_a_at) / RFU VCAN (11755009_s_at) / Fold change /veh VCAN (11755009_s_at) / RFU RHOB (11743442_s_at) / Fold change /veh RHOB (11743442_s_at) / RFU RGS16 (11720943_a_at) / Fold change /veh RGS16 (11720943_a_at) / RFU RGS16 (11720944_at) / Fold change /veh RGS16 (11720944_at) / RFU, VPS4B / Fold change vs veh, VPS4B / RFU, CREB1 / Fold change vs veh, CREB1 / RFU, DNAJC13 / Fold change vs veh, DNAJC13 / RFU, GNAQ / Fold change vs veh, GNAQ / RFU, CDK5R1 / Fold change vs veh, CDK5R1 / RFU, ZRANB3 / Fold change vs veh, ZRANB3 / RFU, CUL4A / Fold change vs veh, CUL4A / RFU, CCNY / Fold change vs veh, CCNY / RFU, UFL1 / Fold change vs veh, UFL1 / RFU, COG3 / Fold change vs veh, COG3 / RFU, DIAPH2 / Fold change vs veh, DIAPH2 / RFU, SKA2 / Fold change vs veh, SKA2 / RFU, AFF3 / Fold change vs veh, AFF3 / RFU, LMF1 / Fold change vs veh, LMF1 / RFU, IPO11 / Fold change vs veh, IPO11 / RFU, DFFB / Fold change vs veh, DFFB / RFU, FOXP1 / Fold change vs veh, FOXP1 / RFU, CARD8 / Fold change vs veh, CARD8 / RFU, STRN3 / Fold change vs veh, STRN3 / RFU, ADK / Fold change vs veh, ADK / RFU, RASSF2 / Fold change vs veh, RASSF2 / RFU, WIPF1 / Fold change vs veh, WIPF1 / RFU, LARP1B / Fold change vs veh, LARP1B / RFU, RASA1 / Fold change vs veh, RASA1 / RFU, RB1 / Fold change vs veh, RB1 / RFU, PPFIA1 / Fold change vs veh, PPFIA1 / RFU, MAT2A / Fold change vs veh, MAT2A / RFU, CCT5 / Fold change vs veh, CCT5 / RFU, WDR92 / Fold change vs veh, WDR92 / RFU, CUX1 / Fold change vs veh, CUX1 / RFU, TTC7A / Fold change vs veh, TTC7A / RFU, TMEM135 / Fold change vs veh, TMEM135 / RFU, DEPTOR / Fold change vs veh, DEPTOR / RFU, CPM / Fold change vs veh, CPM / RFU, DNAJB6 / Fold change vs veh, DNAJB6 / RFU, CACNA2D3 / Fold change vs veh, CACNA2D3 / RFU, DTX4 / Fold change vs veh, DTX4 / RFU, TFCP2 / Fold change vs veh, TFCP2 / RFU, GMCL1 /// GMCL1P1 / Fold change vs veh, GMCL1 /// GMCL1P1 / RFU, AEBP2 / Fold change vs veh, AEBP2 / RFU, SNHG1 /// SNORD22 /// SNORD25 /// SNORD26 /// SNORD27 /// SNORD28 /// SNORD29 /// SNORD31 / Fold change vs veh, SNHG1 /// SNORD22 /// SNORD25 /// SNORD26 /// SNORD27 /// SNORD28 /// SNORD29 /// SNORD31 / Fold change (Aza/veh), C12orf56 (ProbeSet 11735607_a_at) / Fold change (ACY-1035/veh), C12orf56 (ProbeSet 11735607_a_at) / Fold change (Aza/veh), FGFR1OP (ProbeSet 11751329_s_at) / Fold change (ACY-1035/veh), FGFR1OP (ProbeSet 11751329_s_at) / Fold change (Aza/veh), VPS36 (ProbeSet 11739960_a_at) / Fold change (ACY-1035/veh), VPS36 (ProbeSet 11739960_a_at) / RFU SYPL1 (11715823_x_at) / Fold change /veh SYPL1 (11715823_x_at) / RFU IGFBP7 (11715501_s_at) / Fold change /veh IGFBP7 (11715501_s_at) / RFU REEP3 (11722064_at) / Fold change /veh REEP3 (11722064_at) / RFU IGLL1 (11728026_x_at) / Fold change /veh IGLL1 (11728026_x_at): dose or concentration left out as unconfirmed
Conditions: MV-4-11 cells, 48 hours

Nc1ccc(-c2cccs2)cc1NC(=O)c1ccc2c(c1)cc(C1CC1)n2CCN1CCOCC1 [ACY-1035]
RFU TMEM136 (11760407_x_at): 15.13 RFU
